US11254644B2, “Inhibitors of alpha-amino-beta-carboxymuconic acid semialdehyde decarboxylase” (TES Pharma S.r.l., priority 2014, dated 2022)

The compounds below were run on Caspase 3/7 activity in MDCK cells (assay: Modulation of cisplatin-induced caspase 3/7 activity in MDCK cells). Conditions: 100 μM, in combination with cisplatin; p<0.001.
Type: cell-based
Procedure: MDCK cells are cultured in base medium to a final concentration of 10%. Cells are plated into 96 wells and 24 hours after cell plating the medium is changed with fresh medium supplemented with 1% FBS. Cisplatin is then used to induce cell injury. Different concentrations of Formula (I), Formula (Ia), Formula (Ib), Formula (II), or Formula (III), or a pharmaceutically acceptable salt thereof (in DMSO) are added in combination with cisplatin or prior to adding cisplatin. Caspase 3/7 activity (Promega) is determined according to standard procedures using a luminescent signal readout on a plate reader. Each experiment/condition is performed in triplicate. Caspase activity is analyzed as percentage effect normalized to the cisplatin alone and vehicle treated cells.
MDCK cells (MDCK (NBL-2) ATCC® CCL-34™) were cultured in base medium ATCC-formulated Eagle's Minimum Essential Medium, Catalog No. 30-2003 with fetal bovine serum (FBS) to a final concentration of 10%. […]
Caspase 3/7 activity (Promega) was determined according to standard procedures using a luminescent signal readout on a Victor V plate reader (PerkinElmer). […]
Caspase activity was analyzed as percentage effect normalized to the cisplatin alone (100%) and vehicle treated cells as 0% of caspase activity. Data were analyzed by GraphPad Software. […]

Compound | caspase activity compared to cisplatin alone
N#Cc1c(-c2cccs2)nc(SCc2cccc(CC(=O)O)c2)[nH]c1=O [Compound 18] | decreased caspase activity in significant manner

Same assay, conditions: about 30 μM to about 125 μM, one hour prior to cisplatin; p<0.001

Compound | caspase activity compared to cisplatin alone
N#Cc1c(-c2cccs2)nc(SCc2cccc(CC(=O)O)c2)[nH]c1=O [Compound 18] | decreased caspase activity in significant manner

What follows are compounds tested against hACMSD (ACMSD1) (Homo sapiens (Human), UniProt Q8TDX5) (assay: Determination of ACMSD1 inhibition, spectrophotometrical in vitro assay). Conditions: HAA concentration of 10 μM.
hACMSD (ACMSD1), sequence (Q8TDX5 whole entry): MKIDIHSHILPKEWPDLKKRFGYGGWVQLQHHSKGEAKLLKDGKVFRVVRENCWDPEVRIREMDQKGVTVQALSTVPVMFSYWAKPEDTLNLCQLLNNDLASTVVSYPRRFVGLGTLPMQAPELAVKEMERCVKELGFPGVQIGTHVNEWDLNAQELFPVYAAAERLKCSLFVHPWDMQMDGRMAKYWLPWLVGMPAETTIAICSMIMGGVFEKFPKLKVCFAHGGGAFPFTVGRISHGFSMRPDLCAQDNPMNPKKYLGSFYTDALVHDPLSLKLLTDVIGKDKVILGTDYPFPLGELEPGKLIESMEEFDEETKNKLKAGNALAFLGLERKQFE
Type: biochemical
Procedure: The activity of compounds as inhibitors of ACMSD1 is determined in a spectrophotometrical in vitro assay. The pre-assay mixture is incubated and a compound of Formula (I), Formula (Ia), Formula (Ib), Formula (II), or Formula (III), or a pharmaceutically acceptable salt thereof, and ACMSD1 solution is then added. The effect of ACMS concentration on the enzyme activity is investigated by varying 3-hydroxyanthranilic acid (3OH-HA) concentration in the pre-assay mixture. Kinetic parameters are calculated from the initial velocity data using a Lineweaver-Burk plot.
The activity of compounds 1-19 and 21-23 as inhibitors of ACMSD1 was determined by measuring the conversion of 3OH-Anthranilic Acid into product (i.e., ACMS) in a spectrophotometrical in vitro assay.
The pre-assay mixture consisting of 3-hydroxyanthranilic acid (3OH-HA), 3-hydroxyanthranilic acid, 3,4-diOxygenase (HAO), and a dialyzed crude extract of E. coli BL21 (DE3) cells expressing the recombinant enzyme, was incubated at 25° C. with monitoring of the increase in absorbance at 360 nm due to the formation of ACMS from 3OH-HA. After the reaction was completed within ˜2 mins, an aliquot of ACMSD1 solution (prepared and purified from Pichia Pastoris overexpressing the recombinant enzyme) was added, and the decrease in absorbance at 360 nm was followed at 15 second intervals. The effect of ACMS concentration on the enzyme activity was investigated by varying 3OH-HA concentration from 2 to 20 μM. Kinetic parameters were calculated from the initial velocity data by using the Lineweaver-Burk plot.
The rate of the decrease in absorbance caused by ACMSD1 was calculated by subtracting that of the control reaction mixture without ACMSD from that described above. One unit of ACMSD activity was indicated as the amount of enzyme that converts 1 mmol of ACMS per minute at 25° C. The absence or a reduction of ACMSD1 activity (e.g., by using ACMSD inhibitors) results in a slow ACMS-spontaneous degradation (i.e., cyclization to form quinolic acid).
The enzymatic activity was determined at a HAA concentration of 10 μM in the presence of the compounds in Table 1 below. The compounds were tested at the concentration of about 5 μM and 10 μM and the IC50 was calculated for compounds showing inhibitory activity higher than 50%.

IC50 | Compound
960 nM | CCOC(=O)c1cccc(CSc2nc(-c3ccc(C)cc3)c(C#N)c(=O)[nH]2)c1 [Compound 9]
1100 nM | N#Cc1c(Cl)nc(SCc2cccc(C(=O)O)c2)nc1-c1ccccc1 [Compound 22]
88 nM | O=C(O)c1cccc(CSc2nc(-c3cccs3)c(Br)c(=O)[nH]2)c1 [Compound 12]
1990 nM | CC(Sc1nc(-c2ccccc2)c(C#N)c(=O)[nH]1)C(=O)O (centres unmarked) [Compound 21]
1700 nM | Cc1nc(SCc2cccc(C(=O)O)c2)[nH]c(=O)c1C#N [Compound 10]
82 nM | N#Cc1c(-c2ccncc2)nc(SCc2cccc(C(=O)O)c2)[nH]c1=O [Compound 7]
71 nM | O=C(O)c1cccc(CSc2nc(-c3ccccc3)c(Br)c(=O)[nH]2)c1 [Compound 11]
31 nM | N#Cc1c(-c2ccsc2)nc(SCc2cccc(C(=O)O)c2)[nH]c1=O [Compound 3]
740 nM | O=C(O)c1cccc(CSc2nc(-c3ccccc3)cc(=O)[nH]2)c1 [Compound 14]
12 nM | N#Cc1c(-c2cccs2)nc(SCc2cccc(C(=O)O)c2)[nH]c1=O [Compound 4]
82 nM | N#Cc1c(-c2ccc(Cl)cc2)nc(SCc2ccc(C(=O)O)cc2)[nH]c1=O [Compound 8]
760 nM | O=C(O)c1cccc(CSc2nc(-c3cccs3)cc(=O)[nH]2)c1 [Compound 15]
25 nM | N#Cc1c(-c2cccs2)nc(SCc2cccc(-c3noc(=O)[nH]3)c2)[nH]c1=O [Compound 19]
4900 nM | N#Cc1c(-c2cccs2)nc(SCC(=O)Nc2ccccc2O)[nH]c1=O [Compound 23]
110 nM | N#Cc1c(-c2ccccc2)nc(SCc2ccc(C(=O)O)cc2)[nH]c1=O [Compound 16]
66 nM | N#Cc1c(-c2ccco2)nc(SCc2cccc(C(=O)O)c2)[nH]c1=O [Compound 2]
77 nM | N#Cc1c(C2CCCCC2)nc(SCc2cccc(C(=O)O)c2)[nH]c1=O [Compound 6]
49 nM | N#Cc1c(-c2nccs2)nc(SCc2cccc(C(=O)O)c2)[nH]c1=O [Compound 5]
136 nM | O=C(O)c1cccc(CSc2nc(-c3ccccc3)c(Cl)c(=O)[nH]2)c1 [Compound 13]
10 nM | N#Cc1c(-c2cccs2)nc(SCc2cccc(CC(=O)O)c2)[nH]c1=O [Compound 18]

What follows are compounds tested on human primary hepatocytes (assay: NAD+ content in human primary hepatocytes (LCMS/MS)). Conditions: 0.5 μM and 5 μM; compound replaced every 24 hrs.
Type: cell-based
Procedure: Primary hepatocytes are treated with different concentrations of a compound of Formula (I), Formula (Ia), Formula (Ib), Formula (II), or Formula (III), or a pharmaceutically acceptable salt thereof, or MEHP (control) after seeding. The compound is replaced every 24 hours, and then cells are directly harvested and lysed to detect NAD^+ content through LC MS/MS (liquid chromatography mass spectrometry/mass spectroscopy).
The NAD^+ concentration or content was determined in human primary hepatocytes treated with Compound 4. Vehicle (NT) was used as a control.
At least three experiments were run treating primary hepatocytes with different concentrations of Compound 4 (0.5 μM and 5 μM) after 48 hrs from seeding. Compound 4 was replaced every 24 hrs, and then cells were directly harvested and lysed with ACN/H2O (ratio 5:1). LCMS/MS was used to detect and measure NAD^+ concentration/content. […] (FIG. 1)
The NAD^+ concentration or content was determined in human primary hepatocytes treated with Compound 1 and MEHP, a known ACMSD inhibitor. MEHP was used as a control.
At least three experiments were run treating primary hepatocytes with different concentrations of Compound 1 (0.5 μM, 5 μM, and 50 μM) after 48 hrs from seeding. Compound 1 was replaced every 24 hrs, and then cells were directly harvested and lysed with ACN/H2O (ratio 5:1). […]

Compound | ACMSD-1 inhibition, NAD+ content screening (FIG. 1)
N#Cc1c(-c2cccs2)nc(SCc2cccc(C(=O)O)c2)[nH]c1=O [Compound 4] | inhibits ACMSD-1 enzyme
